14 compounds from ChEMBL document CHEMBL4422681, “Comprehensive kinetic and substrate specificity analysis of an arylsulfatase from Helix pomatia using mass spectrometry” (Bioorg Med Chem, 2019) can be followed below.

Structures can show the parent of a compound that is named as a salt.

A short description of series [1]: Substrate activity at Helix pomatia arylsulfatase assessed as enzyme-mediated compound hydrolysis by measuring Vmax by UPLC-MS/MS analysis. It counts as ADME.
The test system of series [2] is arylsulfatase. Nature of the series: Substrate activity at Helix pomatia arylsulfatase assessed as enzyme-mediated compound hydrolysis by measuring Km by UPLC-MS/MS analysis. Type of series: ADME. Conditions: Helix pomatia arylsulfatase (isolated enzyme).
The nature of series [3]: Substrate activity at Helix pomatia arylsulfatase assessed as enzyme-mediated compound hydrolysis by measuring catalytic efficiency by UPLC-MS/MS analysis. It counts as ADME.
Series [4] in a line: Stability of the compound in pH 7 ammonium acetate buffer by UPLC-MS/MS analysis. Type of series: physicochemical.
The subject of series [5] is arylsulfatase. Briefly: Substrate activity at Helix pomatia arylsulfatase assessed as enzyme-mediated compound hydrolysis using 1 U of enzyme measured after 24 hrs by UPLC-MS/MS analysis. Type of series: ADME. Conditions: Helix pomatia arylsulfatase (isolated enzyme), read-out: Drug metabolism.
Series [6] concerns arylsulfatase. Nature of the series: Substrate activity at Helix pomatia arylsulfatase assessed as enzyme-mediated compound hydrolysis using 1 U of enzyme measured after 30 mins by UPLC-MS/MS analysis. Type of series: ADME. Conditions: Helix pomatia arylsulfatase (isolated enzyme), read-out: Drug metabolism.
In series [7] the test system is arylsulfatase. Nature of the series: Substrate activity at Helix pomatia arylsulfatase assessed as enzyme-mediated compound hydrolysis using 5 U of enzyme measured after 30 mins by UPLC-MS/MS analysis. It counts as ADME. Conditions: Helix pomatia arylsulfatase (isolated enzyme), read-out: Drug metabolism.
Series [8] is described as follows: Drug metabolism in pH 7 ammonium acetate buffer assessed as 7-hydroxy-4-methyl-2H-chromen-2-one formation.
Series [9] deals with arylsulfatase. Nature of the series: Substrate activity at Helix pomatia arylsulfatase assessed as enzyme-mediated compound hydrolysis by measuring parent compound remaining using 0.1 U of enzyme measured after 30 mins by UPLC-MS/MS analysis. Type of series: ADME. Conditions: Helix pomatia arylsulfatase (isolated enzyme), read-out: Stability.

The Vmax is the rate approached at saturating substrate. Usually Km stands for the concentration of substrate that gives half-maximal velocity.

As for `O=S(=O)(O)Oc1cccc(O)c1`, in series [1], the maximal velocity (Vmax) amounted to 0.01 µM/s. Also, the Km in the series on arylsulfatase [2] worked out at 131 µM. The Activity in series [3] came to 696 s⁻¹ µM⁻¹. The Stability result in series [4] was “Stable”. For the same compound, the metabolised at 24 h in the series with arylsulfatase [5] is 100%.

As to `O=[N+]([O-])c1ccc(OS(=O)(=O)O)cc1`, the Stability result in [4] is “Stable”. In addition, the metabolised at 0.5 h in the series on arylsulfatase [6] was 100%.

In the case of `COc1cc(/C=C/C(=O)O)ccc1OS(=O)(=O)O`, the Vmax in series [1] is 0.01 µM/s. For the same compound, the Km in the series on arylsulfatase [2] was determined as 161 µM. For the same compound, in series [3], the Activity came out at 862 s⁻¹ µM⁻¹. The Stability entry in series [4] is “Stable”. In the series with arylsulfatase [5], the metabolised at 24 h amounted to 100%.

Take `O=S(=O)(O)Oc1c[nH]c2ccccc12` [INDOXYL SULFATE]: the Vmax in series [1] came out at 0.02 µM/s. Further, in the series with arylsulfatase [2], the Km came to 216 µM. In addition, the Activity in [3] turned out to be 1060 s⁻¹ µM⁻¹. Also, in [4], the Stability result is recorded as “Stable”. The metabolised at 24 h in the series with arylsulfatase [5] was 100%.

In the case of `O=C(O)/C=C/c1ccc(OS(=O)(=O)O)cc1`, in series [1], the maximal velocity (Vmax) is 0.02 µM/s. The Km in the series on arylsulfatase [2] was 262 µM. In addition, the Activity in [3] amounted to 898 s⁻¹ µM⁻¹. Also, in series [4], the Stability result is listed as “Stable”. In addition, in the series on arylsulfatase [5], the metabolised at 24 h is 100%.

Consider `Cc1cc(=O)oc2cc(OS(=O)(=O)O)ccc12`, for which the metabolised at 0.5 h in the series with arylsulfatase [7] and in the series on arylsulfatase [6] was 100% in each case. Moreover, the Drug metabolism entry in series [8] is reported as “Metabolite detected”. Besides, in series [1], the Vmax came out at 2.66 µM/s. Also, the Km in the series on arylsulfatase [2] is 175 µM. In the series on arylsulfatase [9], the remaining at 0.5 h came to 3%. Further, the Stability result in [4] was “Stable”.

For the compound `CC(=O)NCCc1ccc(OS(=O)(=O)O)cc1`, the Vmax in [1] came to 0.17 µM/s. In addition, the Km in the series on arylsulfatase [2] was found to be 1490 µM. The Activity in series [3] stood at 1210 s⁻¹ µM⁻¹. Also, the Stability result in series [4] was “Stable”. Moreover, in the series with arylsulfatase [5], the metabolised at 24 h turned out to be 100%.

Take `C=Cc1ccc(OS(=O)(=O)O)c(OC)c1`: the Stability entry in series [4] is “Stable”. The metabolised at 0.5 h in the series on arylsulfatase [6] is 100%.

On to `Cc1c[nH]c2ccc(OS(=O)(=O)O)cc12`, for which, in [4], the Stability result is reported as “Stable”. The metabolised at 24 h in the series with arylsulfatase [5] was 100%.

In the case of `COc1cc(C(=O)O)ccc1OS(=O)(=O)O`, the Vmax in series [1] stood at 0.01 µM/s. Also, the Km in the series with arylsulfatase [2] was 341 µM. Also, the Activity in series [3] was determined as 351 s⁻¹ µM⁻¹. Also, the Stability entry in series [4] is given as “Stable”. Besides, the metabolised at 24 h in the series with arylsulfatase [5] came out at 100%.

In the case of `COc1ccc2c(c1)c(=O)oc1cc(OS(=O)(=O)O)ccc12`, in series [1], the Vmax is 8.21 µM/s. Also, the Km in the series with arylsulfatase [2] worked out at 112 µM. For the same compound, the Stability entry in series [4] is listed as “Stable”. The metabolised at 0.5 h in the series with arylsulfatase [6] amounted to 100%.

On to `CCc1ccc(OS(=O)(=O)O)cc1`, for which, in series [1], the Vmax is 0.66 µM/s. Further, the Michaelis-Menten constant (Km) with arylsulfatase [2] was found to be 1020 µM. Further, the Activity in series [3] stood at 7010 s⁻¹ µM⁻¹. For the same compound, the Stability entry in [4] is recorded as “Stable”. Further, the metabolised at 24 h in the series on arylsulfatase [5] came to 100%.

As for `C[C@]12CC[C@@H]3c4ccc(OS(=O)(=O)O)cc4CC[C@H]3[C@@H]1CCC2=O` [ESTRONE SULFURIC ACID], in series [1], the maximal velocity (Vmax) came to 3.8 µM/s. Moreover, the Km with arylsulfatase [2] came to 351 µM. For the same compound, the Stability entry in series [4] is “Stable”. Further, the metabolised at 0.5 h in the series on arylsulfatase [6] was determined as 100%.

As to `Cc1ccc(OS(=O)(=O)O)cc1`, the Vmax in series [1] is 0.08 µM/s. Further, the Km in the series on arylsulfatase [2] was determined as 1400 µM. In addition, the Activity in series [3] turned out to be 623 s⁻¹ µM⁻¹. In addition, the Stability result in series [4] is on record as “Stable”. Besides, in the series on arylsulfatase [5], the metabolised at 24 h was determined as 100%.
